pIC50: −log10 of the molar value. Where only a bound is given, the exact number is not on record here.

In assay [1] the target is T1, CYP11B2 (aldosterone synthase) (Homo sapiens, UniProt P19099).
T1 construct: the NCI-H295R cells have CYP11B2 (aldosterone synthase) and CYP11B1 (steroid 11-hydroxylase); host or cells: NCI-H295R
T1 sequence (P19099 25-503): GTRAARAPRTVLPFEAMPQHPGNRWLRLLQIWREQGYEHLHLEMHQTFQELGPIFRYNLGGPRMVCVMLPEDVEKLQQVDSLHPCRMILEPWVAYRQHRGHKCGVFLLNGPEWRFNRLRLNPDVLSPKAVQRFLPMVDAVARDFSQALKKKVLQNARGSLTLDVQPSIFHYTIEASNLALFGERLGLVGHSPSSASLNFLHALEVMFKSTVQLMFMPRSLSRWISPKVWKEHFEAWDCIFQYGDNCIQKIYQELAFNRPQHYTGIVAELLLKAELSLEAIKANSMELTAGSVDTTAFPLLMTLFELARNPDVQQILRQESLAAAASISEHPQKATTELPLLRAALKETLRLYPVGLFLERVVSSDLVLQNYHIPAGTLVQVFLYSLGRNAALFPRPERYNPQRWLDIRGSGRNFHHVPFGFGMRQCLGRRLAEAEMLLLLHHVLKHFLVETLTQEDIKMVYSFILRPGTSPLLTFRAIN
Briefly: Inhibition of aldosterone secretion in NCI-H295R cells. The format is cell-based. The note with it: human adrenocortical carcinoma NCI-H295R cells, 24 hours with cell stimulant. The text has this:
(§1) The activities of a compound according to the present invention can be assessed by the following in vitro method well-described in the art.
(§2) In particular, the inhibition of aldosterone and cortisol secretion in vitro can be determined by the following assay.
(§3) The cell line NCI-H295R was originally isolated from an adrenocortical carcinoma and has been characterized in the literature through the stimulable secretion of steroid hormones and the presence of the enzymes essential for steroidogenesis. The cells show the physiological property of zonally undifferentiated human foetal adrenocortical cells which, however, have the capacity to produce the steroid hormones which are formed in the three phenotypically distinguishable zones in the adult adrenal cortex. Thus, the NCI-H295R cells have CYP11B2 (aldosterone synthase) and CYP11B1 (steroid 11-hydroxylase).
(§4) The human adrenocortical carcinoma NCI-H295R cell line is obtained from American Type Culture Collection (Manassas, Va.). Insulin/transferrin/selenium (ITS)-A supplement (100×), DMEM/F-12, antibiotic/antimycotic (100×), and fetal calf serum (FCS) are purchased from Invitrogen (Carlsbad, Calif.). Anti-mouse PVT scintillation proximity assay (SPA) beads and NBS 96-well plates are obtained from Amersham (Piscataway, N.J.) and Corning (Acton, Mass.), respectively. Clear bottom 96-well flat bottom plates are purchased from Costar (Corning, N.Y.). Aldosterone and angiotensin (Ang II) are purchased from Sigma (St. Louis, Mo.). D[1,2,6,7-3H(N)]aldosterone and [1,2,6,7-3H(N)]cortisol are acquired from PerkinElmer (Boston, Mass.). Nu-serum is a product of BD Biosciences (Franklin Lakes, N.J.).
(§5) For in vitro measurement of aldosterone and cortisol activity, human adrenocortical carcinoma NCI-H295R cells are seeded in NBS 96-well plates at a density of 25,000 cells/well in 100 μL of a growth medium containing DMEM/F12 supplemented with 10% FCS, 2.5% Nu-serum, 1 μg ITS/ml, and 1× antibiotic/antimycotic. The medium is changed after culturing for 3 days at 37° C. under an atmosphere of 5% CO2/95% air. On the following day, cells are rinsed with 100 μL of DMEM/F12 and incubated in quadruplicate wells at 37° C. for 24 hours with 100 μL of treatment medium containing a cell stimulant and a compound at different concentrations. […] Cell stimulants which can be used are angiotensin-II (1 micromolar), potassium ions (16 millimolar), forskolin (10 micromolar) or a combination of two stimulants. At the end of incubation, the excretion of aldosterone and cortisol into the culture medium can be detected and quantified by commercially available, specific monoclonal antibodies in radioimmunoassays in accordance with the manufacturer's instructions.
(§6) Measurement of aldosterone can also be performed using a 96-well plate format. Each test sample is incubated with 0.02 μCi of D[1,2,6,7-3H(N)]aldosterone and 0.3 μg of anti-aldosterone antibody in phosphate-buffered saline (PBS) containing 0.1% Triton X-100, 0.1% bovine serum albumin, and 12% glycerol in a total volume of 200 μL at room temperature for 1 hour. Anti-mouse PVT SPA beads (50 μL) are then added to each well and incubated overnight at room temperature prior to counting in a Microbeta plate counter. The amount of aldosterone in each sample is calculated by comparing with a standard curve generated using known quantities of the hormone. Measurement of cortisol can be performed in a manner similar to that of aldosterone, except that [1,2,6,7-3H(N)]cortisol is used.
(§7) Inhibition of the release of a steroid can be used as a measure of the respective enzyme inhibition by the added test compounds. The dose-dependent inhibition of enzymatic activity by a compound is calculated by means of an inhibition plot which is characterized by an IC50. […] The inhibition plot is calculated by fitting a 4-parameter logistic function to the raw data points using the least squares method.

Assay [2] addresses T2, CYP11B1 (steroid 11-hydroxylase) (Homo sapiens, UniProt P15538).
T2 construct: the NCI-H295R cells have CYP11B2 (aldosterone synthase) and CYP11B1 (steroid 11-hydroxylase); host or cells: NCI-H295R
T2 sequence (P15538 25-503): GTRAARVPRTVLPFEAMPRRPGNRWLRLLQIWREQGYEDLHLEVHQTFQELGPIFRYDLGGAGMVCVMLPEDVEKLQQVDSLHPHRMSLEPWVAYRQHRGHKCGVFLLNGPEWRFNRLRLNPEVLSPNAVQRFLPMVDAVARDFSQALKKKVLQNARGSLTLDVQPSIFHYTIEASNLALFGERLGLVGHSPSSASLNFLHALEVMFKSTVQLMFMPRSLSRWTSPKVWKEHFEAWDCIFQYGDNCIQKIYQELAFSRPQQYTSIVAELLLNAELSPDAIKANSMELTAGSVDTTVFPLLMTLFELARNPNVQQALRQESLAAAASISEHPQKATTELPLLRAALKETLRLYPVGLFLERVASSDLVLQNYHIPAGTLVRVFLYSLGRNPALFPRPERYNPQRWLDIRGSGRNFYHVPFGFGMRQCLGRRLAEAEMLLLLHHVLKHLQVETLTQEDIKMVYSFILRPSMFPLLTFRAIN
The assay is described as follows: Inhibition of cortisol secretion in NCI-H295R cells. The note with it: human adrenocortical carcinoma NCI-H295R cells, 24 hours with cell stimulant. Type of assay: cell-based.
Description: as §1, §2, §3, §4, §5, §6, §7

`CC(C)NC(=O)NCc1cncc(-c2c(C#N)c3ccc(Cl)cc3n2C)c1` [Example 196, 1-[5-(6-Chloro-3-cyano-1-methyl-1H-indol-2-yl)-pyridin-3-ylmethyl]-3-isopropyl-urea]: the figures for the pIC50 in assay [1] and in assay [2] were 8.52 and 7.72, respectively.

As for `Cc1c(-c2cccnc2)n(Cc2ccc(C(=O)O)cc2)c2cccc(F)c12` [Example 33, 4-(4-Fluoro-3-methyl-2-pyridin-3-yl-1H-indol-1-ylmethyl)-benzoic acid], the pIC50 in assay [1] is 7.85; in assay [2], 6.18.

Take `COCCc1cncc(-c2c(C#N)c3ccccc3n2C)c1` [Example 217, 2-[5-(2-Methoxy-ethyl)-pyridin-3-yl]-1-methyl-1H-indole-3-carbonitrile]: the pIC50 in assay [1] is 8.40; in assay [2], 7.66.

For the compound `CN(C)S(=O)(=O)Nc1cncc(-c2cc3ccccc3n2C)c1` [Example 228], the pIC50 in assay [1] is 6.98; in assay [2], less than 6.00.

The values above are taken from patent US8791141B2, “Organic compounds” (Novartis AG, priority 2008, dated 2014).
